Experimental data from BindingDB's records for doi:10.1021/jm0204035 (Glaxosmithkline, 2003).

How the values were obtained:
[1] = molecular target: Trans-2-enoyl-ACP reductase II (Streptococcus pneumoniae, UniProt Q9FBC5); assay: Enzyme Inhibition Assay; details: 30 °C
Method: (§1) Assays were carried out in half-area, 96-well microtiter plates. Compounds were evaluated in assay mixtures containing components specific for each enzyme. Inhibitors were varied over the range 0.01-10 uM. The consumption of NAD(P)H was monitored for 20 min at 30 °C by following the change in absorbance at 340 nm. IC50 values were estimated from a fit of the initial velocities to a standard equation.

[2] = molecular target: T1, Enoyl-[acyl-carrier-protein] reductase [NADH] FabI (Escherichia coli (strain K12), UniProt P0AEK4); assay: Enzyme Inhibition Assay; details: pH 6.5; 30 °C
T1 sequence (P0AEK4 whole entry): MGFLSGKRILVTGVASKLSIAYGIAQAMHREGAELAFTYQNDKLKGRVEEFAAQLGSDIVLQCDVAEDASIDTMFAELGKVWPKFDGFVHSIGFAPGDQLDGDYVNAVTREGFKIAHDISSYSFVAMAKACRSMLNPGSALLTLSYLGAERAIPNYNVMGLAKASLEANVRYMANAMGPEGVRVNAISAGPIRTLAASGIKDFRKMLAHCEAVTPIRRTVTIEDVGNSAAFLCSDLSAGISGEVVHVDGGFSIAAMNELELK
Method: as §1

Sequence of Trans-2-enoyl-ACP reductase II (Q9FBC5 whole entry): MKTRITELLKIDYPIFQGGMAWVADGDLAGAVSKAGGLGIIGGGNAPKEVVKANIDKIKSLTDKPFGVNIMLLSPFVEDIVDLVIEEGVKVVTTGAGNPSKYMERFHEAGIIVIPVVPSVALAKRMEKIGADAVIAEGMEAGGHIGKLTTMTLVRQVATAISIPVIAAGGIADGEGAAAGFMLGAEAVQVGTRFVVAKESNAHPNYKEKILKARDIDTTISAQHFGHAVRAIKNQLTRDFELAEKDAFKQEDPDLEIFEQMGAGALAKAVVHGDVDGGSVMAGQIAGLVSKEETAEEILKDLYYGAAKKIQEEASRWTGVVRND

SMILES: Oc1cc(Cl)ccc1Oc1ccc(Cl)cc1Cl
- IC50 [1]: > 30 µM

SMILES: Cc1cccc2c(CN(C)C(=O)/C=C/c3cnc4c(c3)CCC(=O)N4)c(C)n(C)c12 [(2E)-N-methyl-3-(7-oxo-5,6,7,8-tetrahydro-1,8-naphthyridin-3-yl)-N-[(1,2,7-trimethyl-1H-indol-3-yl)methyl]prop-2-enamide]
- IC50 [1]: > 30 µM
- IC50 [2]: < 0.07 µM

SMILES: Cc1[nH]c2ccccc2c1CN(C)C(=O)/C=C/c1cnc2c(c1)CCC(=O)N2 [(2E)-N-methyl-N-[(2-methyl-1H-indol-3-yl)methyl]-3-(7-oxo-5,6,7,8-tetrahydro-1,8-naphthyridin-3-yl)prop-2-enamide]
- IC50 [2]: < 0.06 µM

SMILES: Cc1c(CN(C)C(=O)/C=C/c2cnc3c(c2)CCC(=O)N3)c2ccccc2n1C [(E)-N-(1,2-Dimethyl-1H-indol-3-ylmethyl)-N-methyl-3-(7-oxo-5,6,7,8-tetrahydro-1,8-naphthyridin-3-yl)acrylamide]
- IC50 [1]: > 30 µM
